According to patent US10722498B2, “Acetazolamide ophthalmic solution” (INNOVATIVE NANO & MICRO TECHNOLOGIES PVT LTD (INM …, priority 2017, dated 2020):

Experiments:
[1] = cited from earlier work
[2] = tested on: New Zealand white rabbit eyes; assay: Measurement of intraocular pressure in rabbit eyes (tonometry); type: in vivo; conditions: rabbits, oral acetazolamide 12.92 mg/kg
Description: The inhibition of the ocular hypertension was determined by the following protocol: The experiments were performed in new New Zealand white rabbit eyes by using tonometry method. Rabbits were divided into groups; where each group consists of 4 animals. Group 1, Group 2, Group 3, Group 4 and Group 5 of Rabbits are administered with the predetermined concentrations of ophthalmic compositions of Example 1, 2, 3, 4 and 5 respectively. Group 6 of Rabbits are administered with oral acetazolamide 12.92 mg/kg. The intraocular pressure was measured at 0, 0.5, 1, 4, 8, 12 hrs. After 6 hours, one more administration of ophthalmic composition of Example 1 was instilled in Group 1 of Rabbits and the intraocular pressure was measured.
The percentage change in the intraocular pressure is depicted in the following table 1.

For `CC(=O)Nc1nnc(S(N)(=O)=O)s1` [Oral acetazolamide, acetazolamide], the solubility in water [1] is given as “very low solubility in water”, the “percentage change in the intraocular pressure” value (from here on “percentage change”) ([2]; 0.5 hrs after administration, 4 per group, eye drops instilled) is given as 18.00% and the “percentage change” value ([2]; 1 hr after administration, eye drops instilled) is given as 14.00%. For the same molecule, the “percentage change” value ([2]; 4 hrs after administration, eye drops instilled) was 14.00%, the “percentage change” value ([2]; 6 hrs after administration, eye drops instilled) was 14.00% and the “percentage change” value ([2]; 8 hrs after administration, Group 1 (Example 1) had a second instillation after 6 hours) was 6.00%. For the same molecule, the “percentage change” value ([2]; 12 hrs after administration, Group 1 (Example 1) had a second instillation after 6 hours) was 6.00%.
